Values quoted from earlier work, collected in US20250018217A1, “PH[…] THERAPY APPARATUS AND METHODS FOR TREATING ORAL DISEASE” (Biolux Group SA, priority 2022, published 2025).
“Also recorded” adds a separate entry of the source. Like-named read-outs stand apart in the source and are kept apart here.

Legend:
[1] = tested on: microbial species
[2] = daily oral supplement of 2,000 IU to 6,000 IU in adults, within 3 months

## CCNc1cc2[s+]c3cc(NCC)c(C)cc3nc2cc1C.[Cl-] [New Methylene blue]
[1]; 00 uM, excitation wavelength 635-652
  Antimicrobial activity (in solution): [17]A. baumannii

## Sulfonic porphyrins (TPPS)
[1]; no concentration or wavelength printed (TPPS)
  Antimicrobial activity (in solution): [42]S. aureus

## COc1cc(/C=C/C(=O)CC(=O)/C=C/c2ccc(O)c(OC)c2)ccc1O [Curcumin]
[1]; 0.75 to 5 g/l, excitation wavelength 547 nm
  Antimicrobial activity (in solution): [50]S. mutans; also recorded: [51]L. acidophilus

## O=C([O-])c1c(Cl)c(Cl)c(Cl)c(Cl)c1-c1c2cc(I)c(=O)c(I)c-2oc2c(I)c([O-])c(I)cc12.[Na+].[Na+] [Rose Bengal]
[1]; 10 um, excitation wavelength 532 nm
  Antimicrobial activity (in solution): [26]E. faecalis

## Phthalocynine
[1]; excitation wavelength 670 nm
  Antimicrobial activity (in solution): [74]A. hidrophila

## CN(C)c1ccc2nc3ccc(=[N+](C)C)cc-3sc2c1 [Methylene blue]
[1]; 25 ug/ml, excitation wavelength 632 nm
  Antimicrobial activity (in solution): [8] Various

## Cc1cc(=[N+](C)C)cc2sc3cc(N(C)C)cc(C)c3nc1-2.[Cl-] [Dimethyl methylene blue]
[1]; 800 um, excitation wavelength 635-652
  Antimicrobial activity (in solution): [12]A. baumannii

## Cc1cc2nc3ccc(N(C)C)cc3[s+]c2cc1N.[Cl-] [Toluidine blue O]
[1]; 100 mg/l, excitation wavelength 410 nm-660 nm
  Antimicrobial activity (in solution): [21]E. coli

## vitamin D
[2]
  Blood levels of vitamin D: 40 ng/mL

## O=C1OC2(c3ccccc31)c1cc(I)c(O)c(I)c1Oc1c2cc(I)c(O)c1I [Erythrosine]
[1]; excitation wavelength 500-550 nm
  Antimicrobial activity (in solution): [64]S. mutans
